Measured values: patent publication US9777266B2, “Methods for efficient, expansive, user-defined DNA mutagenesis” (THE JOHNS HOPKINS UNIVERSITY, priority 2012, dated 2017)

Key:
[1] = test system: cells bearing TEM-1 allele Y105N; assay: MIC assay on Mueller Hinton agar, TEM-1 allele Y105N; assay type: cell-based, E. coli; details: replicates 1-3
Method: (§1) Selected single base mutations were re-introduced into TEM-1 by site-directed PFunkel mutagenesis on the 20 μL volume scale. The MIC for ampicillin and piperacillin of the mutants was assessed with and without 6 μg/mL tazobactam by spotting 10^4 CFU on Mueller-Hinton agar plates containing 50 μg/mL Spec, 300 μM IPTG, and √2-fold increments of either ampicillin or piperacillin. Plates were incubated at 37° C. for 12 hrs.

[2] = test system: cells bearing wildtype TEM-1; assay: MIC assay on Mueller Hinton agar, cells bearing TEM-1 without mutation (allele 'none'); assay type: cell-based, E. coli
Method: as §1

[3] = +tazobactam 6 μg/mL, replicates 1-3
[4] = −tazobactam, replicates 1-3, 10^4 CFU/spot, 37° C. for 12 hours

Structure (SMILES) | MIC ampicillin ([1]; +tazobactam 6 μg/mL) [µg/mL] | MIC ampicillin ([1]; −tazobactam) [µg/mL] | MIC ampicillin [2, 3] [µg/mL] | MIC ampicillin [2, 4] [µg/mL] | Piperacillin MIC [2, 3] [µg/mL] | Piperacillin MIC [2, 4] [µg/mL]
CC1(C)S[C@@H]2[C@H](NC(=O)[C@H](N)c3ccccc3)C(=O)N2[C@H]1C(=O)O [Ampicillin, ampicillin] | 1448 | 5792 | 22.6 | 8192 |  | 
CCN1CCN(C(=O)N[C@@H](C(=O)N[C@@H]2C(=O)N3[C@@H]2SC(C)(C)[C@@H]3C(=O)O)c2ccccc2)C(=O)C1=O [Piperacillin, piperacillin] |  |  |  |  | 1.4 | 2896
